In brackets after ≈: the same amount, converted by molar mass.
Conditions: buffer; pH 7.4; 200.0 µM

Structure (SMILES)	solubility kinetic [mg/mL]
O=C1CN(C(=O)COC(=O)c2cccs2)c2ccccc2N1	0.0292 (≈ 92.3 µM)
O=C(/C=C/c1cccs1)N1CCCC1	> 0.0311
O=C(NC(=S)Nc1ccc(O)cc1)c1cncc(Br)c1	> 0.0528
CC(C)COc1cccc(C(=O)NC2(C)CCS(=O)(=O)C2)c1 (stereo unspecified)	> 0.0488
Cc1cccc(CN2CCSCC2)c1	0.007 (≈ 33.8 µM)
CCC(=O)N/C(=N/c1nc(C)cc(C)n1)Nc1ccccc1	0.013 (≈ 43.7 µM)
Fc1ccc(C(CCNCc2cccs2)c2ccco2)cc1 (stereo unspecified)	0.0342 (≈ 108 µM)
O=C(NCCOc1ccc(Cl)cc1)C1CCCCC1	0.0149 (≈ 52.9 µM)
Cc1csc2c(=O)sc(NC(=O)c3cccs3)nc12	0.0006 (≈ 1.95 µM)
NCCc1c[nH]c2ccc(OCc3ccccc3)cc12	0.0078 (≈ 29.3 µM)
Cc1ccc(Cl)cc1NC(=O)Cn1c(C)csc1=O	0.0164 (≈ 55.3 µM)
N#C/C(=C\c1ccc(O)cc1)C(=O)NCc1cccc(Cl)c1	< 0.0003
Cc1noc2ncnc(Oc3ccc(C(C)(C)C)cc3)c12	< 0.0002
CC12CN3CC(C)(CN(C1)C3c1ccccc1)C2O (stereo unspecified)	> 0.0388
CCN(CC)S(=O)(=O)c1cc(NS(=O)(=O)c2cccs2)ccc1C	> 0.0583
C=C(C)CN1C(=O)C2(OCCO2)c2cc(Br)ccc21	0.0411 (≈ 127 µM)
O=C(O)CCNC(=O)C12CC3CC(CC(C3)C1)C2	> 0.0377
O=c1[nH]c2ccccc2c(O)c1-[n+]1ccccc1.[Cl-]	0.0405
Nc1nc(CCl)nc(Nc2ccc3ccccc3c2)n1	0.0293 (≈ 103 µM)
CCOC(=O)N1CCN(C(=O)COC(=O)c2ccc(Cl)nc2)CC1	> 0.0534
CC(C)c1ccc(OC(=O)c2ccc3c(=O)n4c(nc3c2)CCC4)cc1	0.0083 (≈ 23.8 µM)

Structure (SMILES)	solubility kinetic [mg/mL]
CN(C)c1cccc(Oc2nc3c(c(=O)n(C)c(=O)n3C)n2C)c1	0.0324 (≈ 98.4 µM)
COc1cccc(N=Cc2c(O)c3ccccc3oc2=O)c1	0.0155 (≈ 52.5 µM)
O=C(Nc1ccc(N2CCOCC2)cc1)c1cccc2ccccc12	0.0027 (≈ 8.12 µM)
CC1CCCN(C(=O)c2cc(-c3ccco3)nc3ccccc23)C1 (stereo unspecified)	> 0.0481
CCOc1ccc(CNC(=O)c2ccco2)cc1	> 0.0368
O=C(CC(c1ccc(F)cc1)c1ccco1)Nc1nccs1 (stereo unspecified)	0.0147 (≈ 46.5 µM)
Cc1cc(C)cc(Nc2ncnc3nc[nH]c23)c1	0.0077 (≈ 32.2 µM)
Cc1ccccc1NC1(C#N)CCCCC1	0.0036 (≈ 16.8 µM)
CC(C)(C)C(=O)Nc1cccc(S(=O)(=O)NC2=NCCC2)c1	> 0.0485
COc1ccc(C(=O)O)cc1S(=O)(=O)Nc1ccc(N2CCCCC2)cc1	0.0547 (≈ 140 µM)
C=C(C)COc1ccc(-c2nc(N)ncc2-c2ccc(Cl)cc2)c(O)c1	0.0019 (≈ 5.17 µM)
COc1ccc(CN2CCN(C(=O)c3ccc4c(c3)CCC4)CC2)cc1OC	0.0395 (≈ 104 µM)
CC(=O)c1ccc(OCCCC(=O)NCCc2ccccc2)cc1	0.0388 (≈ 119 µM)
C=CCn1c(/N=C/c2ccc(OC)cc2)nc2ccccc21	0.0406 (≈ 139 µM)
COc1ccc(CCC2CCNCC2)cc1.Cl	> 0.0384
CCOC(=O)c1cc([N+](=O)[O-])sc1NC(=O)CC	0.0053 (≈ 19.5 µM)
C=CCC(=O)N1CCCC(C(=O)c2ccc(Cl)cc2)C1 (stereo unspecified)	0.0425 (≈ 146 µM)
CCOC(=O)Cc1csc(NC(=O)CCCC(=O)O)n1	> 0.045
COc1cccc(C(=O)Nc2cc(C)on2)c1OC	0.034 (≈ 130 µM)
COc1cc(C(=O)N2CCc3ccccc32)cc(OC)c1OC	0.0408 (≈ 130 µM)
Cc1cccc(C)c1N1C(=O)[C@@H]2C(c3ccccc3Cl)=NO[C@@H]2C1=O	0.0396 (≈ 112 µM)

Structure (SMILES)	solubility kinetic [mg/mL]
CCCC(=O)c1cc2c(cc1NC(=O)c1ccccc1F)OCCO2	< 0.0007
Cc1ccc(-c2cc(C(=O)N3CCOCC3)c3ccccc3n2)o1	> 0.0484
O=[N+]([O-])c1ccc2c(c1N1CCCCC1)=NC1(CCCCC1)[N+]=2[O-]	0.0471 (≈ 143 µM)
CN(Cc1cccs1)c1nc(-c2cccnc2)nc2ccccc12	0.003 (≈ 9.02 µM)
COc1ccccc1CNC(=O)c1cc(=O)c2ccccc2o1	0.0108 (≈ 34.9 µM)
Cn1nc(C(=O)NCC(c2cccs2)N2CCOCC2)c2ccccc2c1=O (stereo unspecified)	> 0.0598
Cc1ccc(OC(=O)Nc2ccccc2)cc1	0.0178 (≈ 78.3 µM)
CCc1nnc(NC(=O)c2cc(C)nc3ccccc23)s1	> 0.0448
Cc1cc(C)c(OCCCON2C(=O)CCC2=O)c(Br)c1	> 0.0534
O=C(O)CC(CC(=O)Nc1ccc(Oc2ccccc2)cc1)c1ccccc1 (stereo unspecified)	> 0.0563
O=C(NCCc1ccccc1)C1(c2ccccc2)CCCC1	0.0289 (≈ 98.5 µM)
COC(=O)c1ccc(OCC(=O)NC2CCCCCC2)cc1	> 0.0458
Cc1cnc(NC(=O)COc2ccc3c(c2)CCC3)s1	0.0012 (≈ 4.16 µM)
O=S(=O)(Cc1ccccc1)NCCc1ccc(F)cc1	0.0343 (≈ 117 µM)
Cl.c1ccc2c3c(c(CN4CCCCC4)cc2c1)COC3	> 0.0456
CCCCC(=O)OCc1nc2ccccc2s1	0.0112 (≈ 44.9 µM)
CN(C)c1cc(-c2ccc(C#N)cc2)oc(=O)c1Cl	0.0027 (≈ 9.83 µM)
Cc1cc(C)c(NC(=O)C2CCCO2)c(C)c1NC(=O)C1CCCO1 (stereo unspecified)	> 0.052
COc1ccc(CNC(=O)COC(=O)Cc2ccc(Br)cc2)cc1	0.0058 (≈ 14.8 µM)
